Here are results for 3 compounds from patent US20240423206A1, “HERBICIDE TRANSPORT SYSTEM” (priority 2021, published 2024).

For series [1] the following is noted: powdered form, repeated inhalation of dust; cited from earlier work.
How the values of series [2] were obtained: Pinoxaden (25 g) was added to the respective solvent (75 g) as set out in Table 1 and stirred at 50° C. for 1 hour. After cooling to room temperature (RT) the sample was visually checked for solid residues.
Where there were no residues and the resulting solution was a clear liquid the sample was considered as a “pass”.

As to `CCc1cc(C)cc(CC)c1-c1c(OC(=O)C(C)(C)C)n2n(c1=O)CCOCC2` [pinoxaden], in series [1], the respiratory sensitisation result is given as “respiratory sensitizer”.

With “cyclohexanedicarboxylic acid, dinonyl ester”, in series [2], the Solubility result is listed as “Fail”.

In the case of rapeseed oil, the Solubility entry in series [2] was “Fail”.
